Source: patent US8258306B2, “Glycine transporter-1 inhibitors” (Amgen Inc., priority 2007, dated 2012)
Where a name gives a salt, the structure may show the parent alone.

Each compound was assayed against T1, human glycine transporter type 1 (Gly-T1) (Homo sapiens, UniProt P48067) (assay: Glycine Transporter 1 (GlyT1) Uptake Assay, in vitro). Conditions: inhibition of [14C] glycine uptake (5 μM) in JAR cells endogenously expressing GlyT1; approximate values.
T1 construct: JAR) cells endogenously expressing human glycine transporter type 1 (Gly-T1); endogenous in cells; host or cells: JAR human placental choriocarcinoma cells
T1 sequence (P48067 1-706): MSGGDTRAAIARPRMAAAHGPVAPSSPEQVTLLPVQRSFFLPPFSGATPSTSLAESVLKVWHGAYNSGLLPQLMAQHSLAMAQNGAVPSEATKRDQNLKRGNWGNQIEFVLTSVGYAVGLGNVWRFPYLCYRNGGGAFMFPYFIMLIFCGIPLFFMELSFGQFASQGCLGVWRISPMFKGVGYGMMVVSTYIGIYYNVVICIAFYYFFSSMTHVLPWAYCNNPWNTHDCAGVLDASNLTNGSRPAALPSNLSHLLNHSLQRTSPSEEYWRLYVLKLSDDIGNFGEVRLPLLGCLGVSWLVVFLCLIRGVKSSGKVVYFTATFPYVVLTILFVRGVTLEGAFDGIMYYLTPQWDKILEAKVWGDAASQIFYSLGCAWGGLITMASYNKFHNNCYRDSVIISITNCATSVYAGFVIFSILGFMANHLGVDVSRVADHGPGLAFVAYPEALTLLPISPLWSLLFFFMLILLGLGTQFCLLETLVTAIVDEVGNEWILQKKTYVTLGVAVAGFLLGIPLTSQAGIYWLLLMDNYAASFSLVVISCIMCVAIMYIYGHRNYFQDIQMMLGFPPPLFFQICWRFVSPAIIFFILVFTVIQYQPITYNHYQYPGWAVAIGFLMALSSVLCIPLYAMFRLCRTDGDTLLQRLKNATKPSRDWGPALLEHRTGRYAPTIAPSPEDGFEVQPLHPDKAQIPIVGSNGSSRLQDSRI
Assay type: cell-based
Experimental: This cell-based assay measures the ability of test compounds to inhibit the uptake of glycine by the glycine transporter type 1. Human placental choriocarcinoma (JAR) cells endogenously expressing human glycine transporter type 1 (Gly-T1) were used for this assay. For uptake assays, JAR cells were cultured in 96-well cytostar T scintillating microplates (Amersham Biosciences) in RPMI 1640 medium containing 10% fetal bovine serum in the presence of penicillin (100 μg/ml) and streptomycin (100 μg/ml). Cells were plated at a density of 4×10^4 cells/well and grown at 37° C. in a humidified atmosphere of 5% CO2 for 24 h.
Culture medium was removed from Cytostar plate and JAR cells were incubated with 30 μl of Uptake buffer (120 mM NaCl, 2 mM KCl, 1 mM CaCl2, 1 mM MgCl2, 10 mM Hepes, 5 mM alanine, pH 7.5) with or without compound for 5 min. Then 30 μl of [^14C] glycine (101 mCi/mmol, obtained from Perkin Elmer) diluted in Uptake buffer was added to each well to give a final concentration of 5 μM. After incubation at room temperature for the desired time usually 1-2 h, sealed 96-well Cytostar plates were counted on a TopCount (Packard). Nonspecific uptake of [^14C] glycine was determined in the presence of 10 μM cold ALX-5407 (Sigma).
IC50 curves were generated from the raw data collected from the TopCount and fitted with a four-parameter logistic equation using in-house data analysis tool, Activity Base.

SMILES | IC50 [µM]
O=C(O)CN1CCN(C2(c3ccccc3)CCCCC2)CC1 [Cpd I-13, 2-(4-(1-phenylcyclohexyl)piperazin-1-yl)acetic acid] | > 10
O=C(O)CN1CCC(C(c2ccccc2)c2ccccc2C(F)(F)F)CC1 (centres unmarked) [Cpd I-16, 2-(4-(phenyl(2-(trifluoromethyl)-phenyl)-methyl)piperidin-1-yl)acetic acid] | 3.52
O=C(O)CN1CCN(c2cccc3ccccc23)CC1 [Cpd I-9, 2-(4-naphth-1-ylpiperazin-1-yl)acetic acid] | > 10
C[C@@H]1CN(C2(c3ccc(Cl)cc3)CCCCC2)CCN1CC(=O)O [Cpd I-26, (R)-2-(4-(1-(4-chlorophenyl)cyclohexyl)-2-methylpiperazin-1-yl)acetic acid] | 0.101
O=C(O)CN1CCC(N(c2ccccc2)c2ccc(C(F)(F)F)cc2)CC1 [Cpd I-22, 2-(4-(phenyl(4-(trifluoromethyl)phenyl)-amino)piperidin-1-yl)acetic acid] | 0.129
C[C@@H]1CN(C2(c3ccccc3)CCCCC2)CCN1CC(=O)O [Cpd I-14, (R)-2-(2-methyl-4-(1-phenyl-cyclohexyl)-piperazin-1-yl)acetic acid] | 1.53
O=C(O)CN1CCC(N(c2ccccc2)c2cccc(C(F)(F)F)c2)CC1 [Cpd I-7, 2-(4-(phenyl(3-(trifluoromethyl)-phenyl)amino)piperidin-1-yl)-acetic acid] | 0.393
O=C(O)CN1CCC(C(c2ccccc2)c2ccccc2)CC1 [Cpd I-8, 2-(4-benzhydrylpiperidin-1-yl)acetic acid] | 0.536
O=C(O)CN1CCCC(C(c2ccccc2)c2ccc(C(F)(F)F)cc2)C1 (centres unmarked) [Cpd II-1, 2-(3-(phenyl(4-(trifluoromethyl)-phenyl)methyl)piperidin-1-yl)acetic acid] | 0.562
C[C@@H]1CN(C2CCCCc3ccccc32)CCN1CC(=O)O (stereo partly drawn) [Cpd I-1, 2-((R)-2-methyl-4-(6,7,8,9-tetrahydro-5H-benzo[7]annulen-5-yl)-piperazin-1-yl)acetic acid] | 0.258
C[C@@H]1CN(C2CCc3ccc(Br)cc32)CCN1CC(=O)O (stereo partly drawn) [Cpd I-3, 2-((R)-4-(6-bromo-2,3-dihydro-1H-inden-1-yl)-2-methyl-piperazin-1-yl)acetic acid] | 1.01

Next, values leading:

IC50 [µM] | SMILES
0.953 | C[C@@H]1CN(c2cccc3ccccc23)CCN1CC(=O)O [Cpd I-10, (R)-2-(2-methyl-4-naphth-1-ylpiperazin-1-yl)acetic acid]
5.32 | O=C(O)CN1CCC(C2c3ccccc3Oc3ccccc32)CC1 [Cpd I-30, 2-(4-(9H-xanthen-9-yl)piperidin-1-yl)acetic acid]
1.13 | C[C@@H]1CN(C2CCCCC2c2ccccc2)CCN1CC(=O)O (stereo partly drawn) [Cpd I-6, 2-((R)-2-methyl-4-(2-phenylcyclohexyl)-piperazin-1-yl)acetic acid dihydrochloride]
0.687 | C[C@@H]1CN(c2c3ccccc3cc3ccccc23)CCN1CC(=O)O [Cpd I-12, (R)-2-(4-anthracen-9-yl-2-methyl-piperazin-1-yl)acetic acid]
0.052 | CC1CC(C(c2ccccc2)c2ccccc2)CCN1CC(=O)O (centres unmarked) [Cpd I-15, 2-(4-benzhydryl-2-methyl-piperidin-1-yl)acetic acid]
0.018 | O=C(O)CN1CCC(N(c2ccccc2)c2ccc(C(F)(F)F)cc2)C1 (centres unmarked) [Cpd II-5, 2-(3-(phenyl(4-(trifluoromethyl)-phenyl)amino)pyrrolidin-1-yl)acetic acid]
> 10 | O=C(O)CN1CCC(C2c3ccccc3-c3ccccc32)CC1 [Cpd I-28, 2-(4-(9H-fluoren-9-yl)piperidin-1-yl)acetic acid]
> 10 | O=C(O)CN1CCN(c2c3ccccc3cc3ccccc23)CC1 [Cpd I-11, 2-(4-anthracen-9-ylpiperazin-1-yl)acetic acid]
0.014 | O=C(O)CN1CCC(N(c2ccccc2)c2cccc(-c3cccnc3)c2)C1 (centres unmarked) [Cpd II-10, 2-(3-(phenyl(3-(pyridin-3-yl)-phenyl)amino)pyrrolidin-1-yl)acetic acid]
> 2 | O=C(O)CN1CCCC(N(c2ccccc2)c2cccc(C(F)(F)F)c2)C1 (centres unmarked) [Cpd II-4, 2-(3-(phenyl(3-(trifluoromethyl)-phenyl)amino)piperidin-1-yl)acetic acid]
0.147 | C[C@@H]1CN(C2c3ccccc3CCc3ccccc32)CCN1CC(=O)O [Cpd I-5]
0.296 | O=C(O)CN1CCCC(N(c2ccccc2)c2ccc(C(F)(F)F)cc2)C1 (centres unmarked) [Cpd II-3, 2-(3-(phenyl(4-(trifluoromethyl)-phenyl)amino)piperidin-1-yl)acetic acid]
